The results in this text go back to ChEMBL document CHEMBL1157430, “Design, synthesis, and structure-activity relationship study of a novel class of ORL1 receptor antagonists based on N-biarylmethyl spiropiperidine” (Bioorg Med Chem Lett, 2008).

Data set [1] is described as follows: Displacement of [125I]Tyr14-NC/OFQ from human ORL1 expressed in CHO cells. Type of data set: cell-based. Conditions: read-out: I50. For orientation: Displacement assays read how much labelled ligand stays bound in the presence of the test substance.
Data set [2] is described as follows: Lipophilicity Log D at pH 7.4 by shake flask method. The class given is physicochemical. Conditions: buffer.
For a further data set, the system named is CHO. As to the kind of experiment: Displacement of [125I]Tyr14-NC/OFQ from human ORL1 expressed in CHO cells at 1 uM. Type of data set: cell-based.
Data set [3] can be described thus: Antagonist activity at human ORL1 expressed in CHO cells by GTPgammaS binding assay. The class given is cell-based. As to conditions: read-out: I50. On the technique in general: Binding of GTPγS marks nucleotide exchange on a G protein.
The next data set deals with Mu-type opioid receptor (Homo sapiens, UniProt P35372). As to the kind of experiment: Displacement of [3H]diprenorphin from human cloned mu opioid receptor expressed in CHO cells. Type of data set: cell-based.
Data set [4] deals with Kappa-type opioid receptor (Homo sapiens, UniProt P41145). As to the kind of experiment: Displacement of [3H]U69593 from human cloned kappa opioid receptor expressed in CHO cells. The class given is cell-based.
The nature of data set [5]: Metabolic stability in human liver microsomes at 1 uM after 30 mins. The class given is ADME, Microsome. As to conditions: read-out: Stability. A general note: Liver microsomes are a subcellular fraction often used to study metabolism.
Data set [6] is described as follows: Metabolic stability in rat liver microsomes at 1 uM after 30 mins. The class given is ADME, Microsome. As to conditions: read-out: Stability.
The target in data set [7] is Voltage-gated inwardly rectifying potassium channel KCNH2 (Homo sapiens, UniProt Q12809). As to the kind of experiment: Displacement of [35S]MK499 from human ERG in HEK293 cell membrane.

Where only a bound is given, the exact number is not on record here.

Chain of Kappa-type opioid receptor (P41145 whole entry): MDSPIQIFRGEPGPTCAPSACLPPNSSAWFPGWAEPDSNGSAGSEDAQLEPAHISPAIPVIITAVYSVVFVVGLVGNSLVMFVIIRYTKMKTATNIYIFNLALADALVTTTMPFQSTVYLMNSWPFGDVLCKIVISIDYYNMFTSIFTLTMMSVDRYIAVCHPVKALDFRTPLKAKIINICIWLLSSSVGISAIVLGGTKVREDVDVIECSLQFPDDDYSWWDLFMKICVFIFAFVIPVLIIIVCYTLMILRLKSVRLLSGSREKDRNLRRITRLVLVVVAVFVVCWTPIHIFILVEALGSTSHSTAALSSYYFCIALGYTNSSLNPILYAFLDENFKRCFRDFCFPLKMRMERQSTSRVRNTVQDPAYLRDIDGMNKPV
Chain of Mu-type opioid receptor (P35372 whole entry): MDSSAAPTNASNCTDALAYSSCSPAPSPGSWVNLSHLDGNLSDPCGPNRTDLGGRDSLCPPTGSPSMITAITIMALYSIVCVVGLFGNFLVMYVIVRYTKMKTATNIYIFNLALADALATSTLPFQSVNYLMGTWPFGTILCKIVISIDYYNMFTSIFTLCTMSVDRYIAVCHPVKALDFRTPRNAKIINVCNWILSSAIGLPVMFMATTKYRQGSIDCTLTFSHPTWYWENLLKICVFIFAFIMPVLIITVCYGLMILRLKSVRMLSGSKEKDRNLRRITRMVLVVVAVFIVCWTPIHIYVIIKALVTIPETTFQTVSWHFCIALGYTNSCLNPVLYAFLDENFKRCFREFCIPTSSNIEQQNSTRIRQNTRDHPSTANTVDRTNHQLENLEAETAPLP
Chain of Voltage-gated inwardly rectifying potassium channel KCNH2 (Q12809 whole entry): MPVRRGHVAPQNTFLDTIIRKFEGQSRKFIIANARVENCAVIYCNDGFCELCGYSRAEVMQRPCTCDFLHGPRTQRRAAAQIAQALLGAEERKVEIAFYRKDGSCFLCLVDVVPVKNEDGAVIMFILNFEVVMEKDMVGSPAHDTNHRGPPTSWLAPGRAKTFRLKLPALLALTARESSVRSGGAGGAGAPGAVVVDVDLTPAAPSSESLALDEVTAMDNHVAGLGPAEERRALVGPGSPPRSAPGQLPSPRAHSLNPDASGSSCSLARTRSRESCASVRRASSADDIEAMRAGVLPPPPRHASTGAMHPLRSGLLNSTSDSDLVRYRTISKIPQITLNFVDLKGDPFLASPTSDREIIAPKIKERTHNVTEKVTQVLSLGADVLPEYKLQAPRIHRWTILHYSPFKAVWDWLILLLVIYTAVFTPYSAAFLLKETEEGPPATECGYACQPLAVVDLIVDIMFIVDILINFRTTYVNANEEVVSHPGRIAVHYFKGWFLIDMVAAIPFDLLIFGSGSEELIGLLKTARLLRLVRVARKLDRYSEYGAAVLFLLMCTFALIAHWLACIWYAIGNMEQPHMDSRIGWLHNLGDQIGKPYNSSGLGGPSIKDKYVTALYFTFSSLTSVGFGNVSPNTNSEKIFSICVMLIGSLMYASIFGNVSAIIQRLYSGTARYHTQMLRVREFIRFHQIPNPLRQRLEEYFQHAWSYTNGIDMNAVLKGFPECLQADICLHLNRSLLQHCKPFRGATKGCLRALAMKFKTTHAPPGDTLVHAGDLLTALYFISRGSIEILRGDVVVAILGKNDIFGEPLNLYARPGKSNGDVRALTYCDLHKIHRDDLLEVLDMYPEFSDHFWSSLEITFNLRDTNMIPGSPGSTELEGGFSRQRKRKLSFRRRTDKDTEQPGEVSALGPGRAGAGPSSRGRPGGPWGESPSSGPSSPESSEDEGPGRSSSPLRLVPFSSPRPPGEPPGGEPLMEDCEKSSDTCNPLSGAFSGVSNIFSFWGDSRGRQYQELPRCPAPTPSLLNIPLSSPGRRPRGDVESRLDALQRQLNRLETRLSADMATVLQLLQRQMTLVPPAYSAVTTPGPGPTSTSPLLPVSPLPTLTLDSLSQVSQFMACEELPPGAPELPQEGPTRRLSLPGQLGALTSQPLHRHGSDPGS

For the compound `CC(=O)Nc1cccnc1-n1cc(CN2CCC3(CC2)OCc2ccccc23)c(C)n1`, in data set [1], the IC50 is 27 nM. Further, the logD in data set [2] came to 3.2.

For `Cc1nn(-c2ccccc2)c(C)c1CN1CCC2(CC1)OCc1ccccc12`, the IC50 in data set [1] was 13 nM.

For `CC(C)(C)c1nn(-c2ccccc2)cc1CN1CCC2(CC1)OCc1ccccc12`, the IC50 in data set [1] stood at 59 nM.

Regarding `Cc1nn(-c2cnccn2)cc1CN1CCC2(CC1)OCc1ccccc12`, the IC50 in data set [1] worked out at 200 nM. The logD in data set [2] turned out to be 3.5.

Regarding `Cc1nn(-c2ccncc2)cc1CN1CCC2(CC1)OCc1ccccc12`, the IC50 in [1] worked out at 820 nM. Also, the logD in data set [2] is 3.7.

For the compound `c1cncc(-c2ccccc2CN2CCC3(CC2)OCc2ccccc23)c1`, the inhibition with CHO was determined as 31%. Further, in data set [1], the IC50 is more than 1000 nM.

Turning to `c1ccc(-n2cc(CN3CCC4(CC3)OCc3ccccc34)nn2)cc1`, the IC50 in [1] is 190 nM.

Turning to `c1ccc(-c2nc(CN3CCC4(CC3)OCc3ccccc34)cs2)cc1`, the inhibition with CHO is 3%. The IC50 in data set [1] was more than 1000 nM.

Take `c1ccc(-n2nccc2CN2CCC3(CC2)OCc2ccccc23)cc1`: the inhibition in the data set with CHO is -2%. For the same compound, the IC50 in data set [1] was more than 1000 nM.

As to `Cc1nn(-c2cccc(Cl)n2)cc1CN1CCC2(CC1)OCc1ccccc12`, the IC50 in data set [1] was 43 nM. Also, the logD in data set [2] was found to be 3.9.

Take `c1ccc(Cc2nn(-c3ccccc3)cc2CN2CCC3(CC2)OCc2ccccc23)cc1`: the IC50 in data set [1] came out at 30 nM.

Turning to `CCc1nn(-c2ccccc2)cc1CN1CCC2(CC1)OCc1ccccc12`, the values for the IC50 in data set [1] and in data set [3] were 9.4 nM and 8.4 nM, respectively.

Take `c1ccc(-n2cc(CN3CCC4(CC3)OCc3ccccc34)cn2)cc1`: the IC50 in data set [1] was 40 nM.

Consider `CC(C)c1nn(-c2ccccc2)cc1CN1CCC2(CC1)OCc1ccccc12`, for which, in data set [1], the IC50 was found to be 21 nM.

Regarding `c1cncc(-c2cccc(CN3CCC4(CC3)OCc3ccccc34)c2)c1`, in the data set on CHO, the inhibition was found to be 45%. In addition, in [1], the IC50 was more than 1000 nM.

In the case of `c1cncc(-c2ccc(CN3CCC4(CC3)OCc3ccccc34)cc2)c1`, in the data set on CHO, the inhibition turned out to be 15%. Besides, the IC50 in data set [1] is more than 1000 nM.

`c1ccc(-c2cccc(CN3CCC4(CC3)OCc3ccccc34)c2)nc1`: the IC50 in data set [1] worked out at 310 nM.

As to `Cc1ccnc(-n2cc(CN3CCC4(CC3)OCc3ccccc34)c(C)n2)c1`, the figures for the IC50 in [1] and in [3] were 19 nM and 45 nM, respectively. Further, the logD in data set [2] is 3.2.

For `Cc1nn(-c2ccccn2)cc1CN1CCC2(CC1)OCc1ccccc12`, the IC50 in data set [1] stood at 12 nM; in data set [3], 16 nM. Moreover, in data set [2], the logD was found to be 3.1.

For `Cc1nn(-c2ncccn2)cc1CN1CCC2(CC1)OCc1ccccc12`, in [1], the IC50 was determined as 93 nM. Also, the logD in data set [2] turned out to be 2.9.

In the case of `Cc1nn(-c2ncccc2Cl)cc1CN1CCC2(CC1)OCc1ccccc12`, the IC50 on Mu-type opioid receptor was 7400 nM; in data set [4], more than 10000 nM; in data set [1], 4.5 nM; in [3], 2.7 nM. Also, the remaining at 0.5 h, 1 µM in data set [5] came to 60%; in [6], 6%. The logD in data set [2] stood at 3.1.

`Cc1nn(-c2c(Cl)cccc2NS(C)(=O)=O)cc1CN1CCC2(CC1)OCc1ccccc12`: the IC50 at Mu-type opioid receptor is more than 10000 nM; in [4], more than 10000 nM; in [7], 17000 nM; in data set [1], 1.9 nM; in data set [3], 0.53 nM. Besides, the remaining at 0.5 h, 1 µM was 54% in data set [5] and 69% in data set [6]. In addition, in [2], the logD was 2.1.

Take `c1cc(CN2CCC3(CC2)OCc2ccccc23)cc(-c2ccncc2)c1`: the inhibition in the data set on CHO stood at 18%. The IC50 in data set [1] was more than 1000 nM.

In the case of `Cc1nn(-c2cccnc2)cc1CN1CCC2(CC1)OCc1ccccc12`, the IC50 in data set [1] amounted to 130 nM. This compound also displayed a logD in data set [2] of 3.2.

Consider `c1ccc(-c2csc(CN3CCC4(CC3)OCc3ccccc34)n2)cc1`, for which, in the data set with CHO, the inhibition is -7%. Further, the IC50 in [1] was more than 1000 nM.

Take `CNC(=O)c1cccnc1-n1cc(CN2CCC3(CC2)OCc2ccccc23)c(C)n1`: the IC50 in data set [1] was found to be 22 nM. In [2], this compound came in with a logD of 1.4.

As to `Cc1nn(-c2ccc(Cl)cn2)cc1CN1CCC2(CC1)OCc1ccccc12`, the IC50 in data set [1] was determined as 280 nM. Besides, in [2], the logD is 3.5.

`Cc1nn(-c2ccccc2)nc1CN1CCC2(CC1)OCc1ccccc12`: in the data set on CHO, the inhibition was found to be 36%. Further, the IC50 in data set [1] is more than 1000 nM.

For the compound `Cc1nn(-c2ncccc2NS(C)(=O)=O)cc1CN1CCC2(CC1)OCc1ccccc12`, the IC50 in [1] is 11 nM. For the same compound, in [2], the pH-dependent lipophilicity (logD) was 2.1.

As to `Cc1cccnc1-n1cc(CN2CCC3(CC2)OCc2ccccc23)c(C)n1`, the IC50 on Mu-type opioid receptor was 4400 nM; in data set [4], more than 10000 nM; in [7], 13000 nM; in [1], 2.6 nM; in [3], 2.6 nM. In addition, the remaining at 0.5 h, 1 µM in data set [5] is 64%; in data set [6] it was 1%. The compound also gave a logD in data set [2] of 2.7.

Consider `Cc1c(CN2CCC3(CC2)OCc2ccccc23)cnn1-c1ccccc1`, for which the IC50 in [1] was 100 nM.

As for `Cc1nn(-c2ccccc2Cl)cc1CN1CCC2(CC1)OCc1ccccc12`, the figures for the IC50 in [1] and in data set [3] were 0.65 nM and 0.87 nM, respectively. In data set [2], this compound displayed a logD of 3.7.

With `Cc1nn(-c2ccccc2)cc1CN1CCC2(CC1)OCc1ccccc12`, the IC50 on Mu-type opioid receptor amounted to 3200 nM; in data set [4] it was 9700 nM; in [1], 6.9 nM; in data set [3], 1.6 nM. The remaining at 0.5 h, 1 µM in [5] was 28%; in data set [6], 4%. In data set [2], the logD is more than 4.

Broadly, the logD is lipophilicity at a set pH, counting ionised and neutral species. The low end stands for a more hydrophilic compound, the high end for a more lipophilic compound. For orientation: inhibition means the change of the read-out against control, counted positive when it falls.
